Where “and” joins values, the source holds several entries; their conditions need not be identical. Equal values may be shown once. Values belong to the compound of their own block, whether it stands above or below them. Calls of active or inactive are those of the source. Rule for the calls: active = viability on the fitted dose curve at most 10% of control; inactive = the rest.
System: MPNST multicellular tumor spheroids, viability % test/control
Test: Anticancer human tumor MPNST cell line growth inhibition;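 for IC50: spheroids exposed to agents for seven days after three days of growth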;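 for viability, T/C: luminescence signal used as surrogate for viable cell amount; spheroids exposed to agents for seven days after three days of growth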
Settings: for viability, T/C: stronger effect = lower value
Excerpt: Multicellular complex tumor spheroid response to DNA repair inhibitors in combination with DNA-damaging drugs
This study explores the anticancer activities of DNA-damaging drugs and inhibitors of DNA damage repair, both as single agents and in combinations. Complex tumor spheroids comprised of malignant cells, endothelial cells and mesenchymal stem cells served as an in vitro model for human solid tumors. This model system incorporates physiologically relevant features and patient-derived or established malignant cell lines with clinically relevant genetic alterations from many tumor types. Twenty-six patient-derived or established malignant cell lines were evaluated representing sarcoma, melanoma, small cell lung cancer (SCLC), non-small cell lung cancer (NSCLC), as well as bladder, ovarian and pancreatic cancers. The concentration ranges selected for each drug and investigational agent were based upon clinically achievable concentrations if the clinical Cmax of the agent was known.
Compounds. The drugs and compounds olaparib (NSC753686), talazoparib (NSC767125), berzosertib (NSC777718), elimusertib (NSC800525), nedisertib (NSC802822), VX-984 (NSC792969), AZD-1390 (NSC803789), temozolomide (NSC362856), topotecan (NSC609699), trabectedin (NSC813783), staurosporine (NSC755774), and gemcitabine (NSC613327) were obtained from the National Cancer Institute (NCI) Developmental Therapeutics Program Chemical Repository. The FDA-approved anticancer drug set is available from the Developmental Therapeutics Program at https://dtp.cancer.gov/organization/dscb/obtaining/available_plates.htm. […] The stock solutions were prepared in dimethyl sulfoxide (DMSO, Sigma-Aldrich, St. Louis, MO, cat. D2650) at 400-fold the tested concentration and stored at -70 degrees C. Prior to their use, the stock solutions were diluted in fresh medium and the final DMSO concentration in the assay was 0.25% (v/v). All drugs and investigational agents were tested over a range starting from a high concentration at or near the clinical Cmax and decreasing in half-log increments. If the clinical Cmax for an agent had not been determined, the highest concentration tested was 10 microM.
Cell Lines. The patient-derived cancer cell (PDC) lines: 156681-154-R-J1-PDC, 283228-195-R-J1-PDC, 287954-098-R-J1-PDC, 292921-168-R-J2-PDC, 349418-098-R-PDC, 425362-245-T-J1-PDC, 556581-035-R-J1-PDC, and BL0293-F563-PDC were received from the NCI Patient-Derived Models Repository (PDMR, https://pdmr.cancer.gov). The established cell lines HS-SY-2 (RRID:CVCL_8719), MPNST, and SYO-1 (RRID:CVCL_7146) were obtained from the Sloan Kettering Institute. The alveolar soft parts sarcoma cell line ASPS-1 (RRID:CVCL_S738) was established at the NCI and grown from internal seed stocks. The following established cell lines were purchased from the American Type Culture Collection (ATCC, Manassas, VA): G-401 (ATCC, cat. CRL-1441, RRID:CVCL_0270), SW982 (ATCC, cat. HTB-93, RRID:CVCL_1734), VA-ES-BJ (ATCC, cat. CRL-2138, RRID:CVCL_1785), NCI-H719 (ATCC, cat. CRL-5837, RRID:CVCL_1582), NCI-H196 (ATCC, cat. CRL-5823, RRID:CVCL_1509), NCI-H841 (ATCC, cat. CRL-5845, RRID:CVCL_1595), NCI-H1618 (ATCC, cat. CRL-5879, RRID:CVCL_1480), NCI-H1876 (ATCC, cat. CRL-5902, RRID:CVCL_1503), DMS 114 (ATCC, cat. CRL-2066; RRID:CVCL_1174), NCI-H211 (ATCC, cat. CRL-5824; RRID:CVCL_1529), and SW 1271 (ATCC, cat. CRL-2177, RRID:CVCL_1716). The small cell lung cancer cell line COR-L88 was purchased from Sigma-Aldrich (cat. 92031917-1VL, RRID:CVCL_1141). The non-small cell lung cancer cell lines NCI-H226 (RRID:CVCL_1544) and NCI-H322M (RRID:CVCL_1557) were established at the NCI and grown from internal seed stocks. Pooled donor human umbilical vein endothelial cells (HUVEC, Lonza, cat. CC-2519) and human mesenchymal stem cells (hMSC, Lonza, cat. PT-2501) were purchased from Lonza (Walkersville, MD).
Cell Culture. All cells were maintained in an incubator at 37 degrees C and 5% CO2 with 95% humidity. […]

[1] = curve of first compound, second compound 0.003 µM

SMILES: Cc1cc(C)c(CNC(=O)c2cc(-c3ccc(CN4CCOCC4)cc3)cc3c2cnn3C2CCCC2)c(=O)[nH]1 + CC[C@@]1(O)C(=O)OCc2c1cc1n(c2=O)Cc2cc3c(CN(C)C)c(O)ccc3nc2-1
IC50 [1]: > 10 µM
IC50 (curve of first compound, second compound 0.00949 µM): > 10 µM
IC50 (curve of first compound, second compound 0.03 µM): > 10 µM
IC50 (curve of first compound, second compound 0.0949 µM): > 10 µM
IC50 (curve of first compound, second compound 0.3 µM): < 0.0316 µM
viability, T/C (second compound 0.003 µM, first compound 0.0316 µM): 86%
viability, T/C (second compound 0.003 µM, first compound 0.1 µM): 79.4%
viability, T/C (second compound 0.003 µM, first compound 0.316 µM): 88.8%
viability, T/C (second compound 0.003 µM, first compound 1 µM): 83.2%
viability, T/C (second compound 0.003 µM, first compound 3.16 µM): 93.3%
viability, T/C (second compound 0.003 µM, first compound 10 µM): 87.5%
viability, T/C (second compound 0.00949 µM, first compound 0.0316 µM): 80.3%
viability, T/C (second compound 0.00949 µM, first compound 0.1 µM): 70%
viability, T/C (second compound 0.00949 µM, first compound 0.316 µM): 91%
viability, T/C (second compound 0.00949 µM, first compound 1 µM): 71.4%
viability, T/C (second compound 0.00949 µM, first compound 3.16 µM): 76.1%
viability, T/C (second compound 0.00949 µM, first compound 10 µM): 78.9%
viability, T/C (second compound 0.03 µM, first compound 0.0316 µM): 55.4%
viability, T/C (second compound 0.03 µM, first compound 0.1 µM): 54.6%
viability, T/C (second compound 0.03 µM, first compound 0.316 µM): 50%
viability, T/C (second compound 0.03 µM, first compound 1 µM): 53%
viability, T/C (second compound 0.03 µM, first compound 3.16 µM): 58.2%
viability, T/C (second compound 0.03 µM, first compound 10 µM): 68.2%
viability, T/C (second compound 0.0949 µM, first compound 0.0316 µM): 51.8%
viability, T/C (second compound 0.0949 µM, first compound 0.1 µM): 52.1%
viability, T/C (second compound 0.0949 µM, first compound 0.316 µM): 51.1%
viability, T/C (second compound 0.0949 µM, first compound 1 µM): 52.4%
viability, T/C (second compound 0.0949 µM, first compound 3.16 µM): 50.3%
viability, T/C (second compound 0.0949 µM, first compound 10 µM): 58.3%
viability, T/C (second compound 0.3 µM, first compound 0.0316 µM): 41.7%
viability, T/C (second compound 0.3 µM, first compound 0.1 µM): 41%
viability, T/C (second compound 0.3 µM, first compound 0.316 µM): 43.2%
viability, T/C (second compound 0.3 µM, first compound 1 µM): 37.8%
viability, T/C (second compound 0.3 µM, first compound 3.16 µM): 42.6%
viability, T/C (second compound 0.3 µM, first compound 10 µM): 45.4%

IC50 (compound alone, run of 11/07/2019): > 100 µM and 30.7 µM
SMILES: Cn1nnc2c(C(N)=O)ncn2c1=O

SMILES: O=C(c1cc(Cc2n[nH]c(=O)c3ccccc23)ccc1F)N1CCN(C(=O)C2CC2)CC1
viability, T/C (compound 0.0949 µM): 88.3% and 108% and 83.2%
viability, T/C (compound 0.3 µM): 75.1% and 84.1% and 60.3%
viability, T/C (compound 0.949 µM): 79.3% and 91.9% and 51.5%
viability, T/C (compound 3 µM): 95.2% and 96.5% and 51.2%
viability, T/C (compound 9.49 µM): 68.4% and 72.2% and 27.7%
viability, T/C (compound 30 µM): 49.3% and 56.8% and 28%

SMILES: COc1ccc([C@@H](O)c2cc(-c3ncnc4cc(N5CCOCC5)ccc34)c(F)cc2Cl)nn1
viability, T/C (compound 0.0316 µM): 33.1% and 109% and 92.9%
viability, T/C (compound 0.1 µM): 26% and 94% and 75.6%
viability, T/C (compound 0.316 µM): 21.6% and 87.5% and 78.7%
outcome (compound 1 µM): inactive
viability, T/C (compound 1 µM): 14.7% and 50.9%

SMILES: Cc1sc2c(c1C)C(c1ccc(Cl)cc1)=NC(CC(=O)Nc1ccc(O)cc1)c1nnc(C)n1-2 (stereo not given)
viability, T/C (compound 0.00949 µM): 124% and 109% and 90.5%
viability, T/C (compound 0.03 µM): 110% and 117% and 95.1%
viability, T/C (compound 0.0949 µM): 92.3% and 99.1% and 60.3%
viability, T/C (compound 0.3 µM): 63.9% and 75.2% and 36.5%
viability, T/C (compound 0.949 µM): 51.5% and 55.6% and 23.4%
viability, T/C (compound 3 µM): 46.8% and 52.1% and 25.7%

SMILES: Cn1ncnc1[C@H]1c2n[nH]c(=O)c3cc(F)cc(c23)N[C@@H]1c1ccc(F)cc1 + COc1cc2c(cc1O)CCNC21CSC2c3c(OC(C)=O)c(C)c4c(c3C(COC1=O)N1C(O)C3Cc5cc(C)c(OC)c(O)c5C(C21)N3C)OCO4
IC50 (curve of first compound, second compound 30 pM): 1.52 µM
IC50 (curve of first compound, second compound 94.9 pM): 0.259 µM
IC50 (curve of first compound, second compound 0.0003 µM): 0.0689 µM
IC50 (curve of first compound, second compound 0.000949 µM): < 0.00949 µM
IC50 [1]: < 0.00949 µM
viability, T/C (second compound 30 pM, first compound 0.00949 µM): 64.4%
viability, T/C (second compound 30 pM, first compound 0.03 µM): 75.2%
viability, T/C (second compound 30 pM, first compound 0.0949 µM): 58.3%
viability, T/C (second compound 30 pM, first compound 0.3 µM): 59.1%
viability, T/C (second compound 30 pM, first compound 0.949 µM): 52.7%
viability, T/C (second compound 30 pM, first compound 3 µM): 46%
viability, T/C (second compound 94.9 pM, first compound 0.00949 µM): 68.9%
viability, T/C (second compound 94.9 pM, first compound 0.03 µM): 86.8%
viability, T/C (second compound 94.9 pM, first compound 0.0949 µM): 67%
viability, T/C (second compound 94.9 pM, first compound 0.3 µM): 49.9%
viability, T/C (second compound 94.9 pM, first compound 0.949 µM): 45.3%
viability, T/C (second compound 94.9 pM, first compound 3 µM): 46%
viability, T/C (second compound 0.0003 µM, first compound 0.00949 µM): 53.1%
viability, T/C (second compound 0.0003 µM, first compound 0.03 µM): 53.6%
viability, T/C (second compound 0.0003 µM, first compound 0.0949 µM): 47%
viability, T/C (second compound 0.0003 µM, first compound 0.3 µM): 49%
viability, T/C (second compound 0.0003 µM, first compound 0.949 µM): 43%
viability, T/C (second compound 0.0003 µM, first compound 3 µM): 41.9%
viability, T/C (second compound 0.000949 µM, first compound 0.00949 µM): 51.6%
viability, T/C (second compound 0.000949 µM, first compound 0.03 µM): 41.6%
viability, T/C (second compound 0.000949 µM, first compound 0.0949 µM): 40.9%
viability, T/C (second compound 0.000949 µM, first compound 0.3 µM): 44.4%
viability, T/C (second compound 0.000949 µM, first compound 0.949 µM): 38%
viability, T/C (second compound 0.000949 µM, first compound 3 µM): 29.9%
viability, T/C (second compound 0.003 µM, first compound 0.00949 µM): 13.7%
viability, T/C (second compound 0.003 µM, first compound 0.03 µM): 15.3%
viability, T/C (second compound 0.003 µM, first compound 0.0949 µM): 9.43%
viability, T/C (second compound 0.003 µM, first compound 0.3 µM): 9.63%
viability, T/C (second compound 0.003 µM, first compound 0.949 µM): 6.89%
viability, T/C (second compound 0.003 µM, first compound 3 µM): 2.68%

SMILES: CNCc1ccc(-c2cc(-c3nc(-c4ccc(S(=O)(=O)C(C)C)cc4)cnc3N)on2)cc1
viability, T/C (compound 0.00949 µM): 119% and 97.4% and 89.4%
viability, T/C (compound 0.03 µM): 113% and 110% and 98.9%
viability, T/C (compound 0.0949 µM): 100% and 81.1% and 87.2%
viability, T/C (compound 0.3 µM): 74.1% and 69.5% and 55.1%
viability, T/C (compound 0.949 µM): 61.8% and 69.6% and 42.9%
viability, T/C (compound 3 µM): 65.9% and 69.1% and 43.7%
IC50 (curve of compound): > 3 µM and 0.495 µM
